This note sets out measurements from ChEMBL document CHEMBL1151626, “Diphenylamine, an antihyperglycemic agent from onion and tea” (1984).

Type in all cases: functional
What all share (set-up): scale not given: the % may be the effect or the level left

Assay [1] concerns Oryctolagus cuniculus. The assay is described as follows: Hypoglycemic activity in glucose-fed rabbit assessed as reduction of plasma glucose at 50 mg/kg, po after 0.5 hr.
Assay [2] relates to Oryctolagus cuniculus. Nature of the assay: Hypoglycemic activity in glucose-fed rabbit assessed as reduction of plasma glucose at 50 mg/kg, po after 2 hrs.
Assay [3] has as its system Oryctolagus cuniculus. Nature of the assay: Hypoglycemic activity in fasting rabbit assessed as reduction of plasma glucose at 50 mg/kg, po.
Assay [4] deals with Oryctolagus cuniculus. Nature of the assay: Hypoglycemic activity in glucose-fed rabbit assessed as reduction of plasma glucose at 50 mg/kg, po after 2.5 hrs.
Assay [5] relates to Oryctolagus cuniculus. The assay is described as follows: Hypoglycemic activity in glucose-fed rabbit assessed as reduction of plasma glucose at 50 mg/kg, po after 1 hr.
Assay [6] relates to Oryctolagus cuniculus. The assay is described as follows: Hypoglycemic activity in rabbit assessed as reduction of plasma glucose at 50 mg/kg, po after 2 hrs.
Assay [7] has as its system Oryctolagus cuniculus. Nature of the assay: Hypoglycemic activity in glucose-fed rabbit assessed as reduction of plasma glucose at 50 mg/kg, po after 1.5 hrs.
The test system of assay [8] is Oryctolagus cuniculus. Nature of the assay: Hypoglycemic activity in glucose-fed rabbit assessed as reduction of plasma glucose at 10 mg/kg, po after 2 hrs.
For assay [9], the system named is Oryctolagus cuniculus. Nature of the assay: Hypoglycemic activity in glucose-fed rabbit assessed as reduction of plasma glucose at 10 mg/kg, po after 2.5 hrs.
For assay [10], the system named is Oryctolagus cuniculus. Nature of the assay: Hypoglycemic activity in glucose-fed rabbit assessed as reduction of plasma glucose at 10 mg/kg, po after 1 hr.
The test system of assay [11] is Oryctolagus cuniculus. The assay is described as follows: Hypoglycemic activity in glucose-fed rabbit assessed as reduction of plasma glucose at 10 mg/kg, po after 0.5 hr.
Assay [12] has as its system Oryctolagus cuniculus. Nature of the assay: Hypoglycemic activity in glucose-fed rabbit assessed as reduction of plasma glucose at 10 mg/kg, po after 1.5 hrs.
Assay [13] relates to Oryctolagus cuniculus. Nature of the assay: Hypoglycemic activity in fasting rabbit assessed as reduction of plasma glucose at 10 mg/kg, po.
The test system of assay [14] is Oryctolagus cuniculus. Nature of the assay: Hypoglycemic activity in rabbit assessed as reduction of plasma glucose at 10 mg/kg, po after 2 hrs.

With `CCCCNC(=O)NS(=O)(=O)c1ccc(C)cc1` [TOLBUTAMIDE], the Activity in the assay on Oryctolagus cuniculus [1] is given as 129 mg%; in the assay on Oryctolagus cuniculus [2] it was 104 mg%; with Oryctolagus cuniculus [3], 104.2 mg%; in the assay with Oryctolagus cuniculus [4] it was 95.1 mg%; in the assay with Oryctolagus cuniculus [5], 154.3 mg%; with Oryctolagus cuniculus [6], 44.1%. Besides, the Activity in the assay with Oryctolagus cuniculus [7] came to 125.2 mg%.

As to `c1ccc(Nc2ccccc2)cc1` [DIPHENYLAMINE], the Activity is 71.8 mg% in the assay with Oryctolagus cuniculus [8]; 77.2 mg% with Oryctolagus cuniculus [9]; 154.6 mg% in the assay with Oryctolagus cuniculus [10]; 140.2 mg% in the assay on Oryctolagus cuniculus [11]; 80.2 mg% with Oryctolagus cuniculus [12]; 102.2 mg% in the assay on Oryctolagus cuniculus [13]. The Activity with Oryctolagus cuniculus [14] came out at 61.4%.
